Laboratory results taken from patent publication US8871753B2, “Macrocyclic compounds and their use as kinase inhibitors” (Incyte Corporation, priority 2008, dated 2014).
Structures can show the parent of a compound that is named as a salt. Where two headings read alike, the source gives them in different places.

How the values were obtained:
Type in all cases: biochemical
[1] = target: T1, human JAK3 (a.a. 781-1124) (Homo sapiens, UniProt P52333); assay: In vitro JAK kinase assay (HTRF, phosphorylation of a biotinylated peptide), JAK3
T1 construct: JAK3 (a.a. 781-1124); His tag (N); made in house; host or cells: insect cells (baculovirus)
Procedure, shortened: (§1)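 Kinase reactions ran at room temperature for 1 h with ATP matched per isoform (JAK1 90 μM, JAK2 30 μM, JAK3 3 μM). After an EDTA stop, the phosphorylated biotin-peptide was read by HTRF using Eu-Py20 and SA-APC after 40 min binding.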

TYK2 = TYK2 (Homo sapiens, UniProt P29597); assay: TYK2 kinase inhibition (Table A1)
[2] = target: T2, human JAK2 (a.a. 828-1132) (Homo sapiens, UniProt O60674); assay: In vitro JAK kinase assay (HTRF, phosphorylation of a biotinylated peptide), JAK2
T2 construct: JAK2 (a.a. 828-1132); His tag (N); made in house; host or cells: insect cells (baculovirus)
Procedure, shortened: as §1

[3] = target: T3, human JAK1 (a.a. 837-1142) (Homo sapiens, UniProt P23458); assay: In vitro JAK kinase assay (HTRF, phosphorylation of a biotinylated peptide), JAK1; conditions: read-out: JAK1 IC50
T3 construct: human JAK1 (a.a. 837-1142); His tag (N); made in house; host or cells: insect cells (baculovirus)
Procedure, shortened: as §1

[4] = target: T4, Recombinant Human Anaplastic Lymphoma Kinase (Homo sapiens, UniProt Q9UM73); assay: ALK HTRF kinase assay
T4 construct: purchased Invitrogen, Carlsbad, Calif
Procedure, shortened: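 Recombinant human ALK with biotinylated peptide substrate; phosphorylation detected by HTRF using Eu-labelled anti-phosphotyrosine antibody and streptavidin-allophycocyanin. IC50 from a sigmoidal fit with Hill slope.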

[5] = Table B1, cells without percent sign
[6] = percentage inhibition of the example compound at a concentration of 500 nM or 1 mM (not specified which)
[7] = method AA1 (3 μM ATP) or AA2 (1000 μM ATP), not stated per value
[8] = method AA1 (30 μM ATP) or AA2 (1000 μM ATP), not stated per value
[9] = method AA1 (90 μM ATP) or AA2 (1000 μM ATP), not stated per value
[10] = compound at 500 nM or 1 mM, 90 μM ATP
[11] = compound at a concentration of 500 nM or 1 mM (not specified), cells shown as percentage

T3 sequence (P23458 849-1154): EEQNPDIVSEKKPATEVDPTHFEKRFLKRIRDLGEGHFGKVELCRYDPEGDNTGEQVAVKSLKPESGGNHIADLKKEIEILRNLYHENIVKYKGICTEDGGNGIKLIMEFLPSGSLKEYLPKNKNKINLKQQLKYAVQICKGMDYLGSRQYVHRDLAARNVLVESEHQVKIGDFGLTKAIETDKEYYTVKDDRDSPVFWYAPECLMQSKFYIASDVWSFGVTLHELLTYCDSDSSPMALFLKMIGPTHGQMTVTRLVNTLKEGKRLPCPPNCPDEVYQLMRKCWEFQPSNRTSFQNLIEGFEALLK
T1 sequence (P52333 781-1124): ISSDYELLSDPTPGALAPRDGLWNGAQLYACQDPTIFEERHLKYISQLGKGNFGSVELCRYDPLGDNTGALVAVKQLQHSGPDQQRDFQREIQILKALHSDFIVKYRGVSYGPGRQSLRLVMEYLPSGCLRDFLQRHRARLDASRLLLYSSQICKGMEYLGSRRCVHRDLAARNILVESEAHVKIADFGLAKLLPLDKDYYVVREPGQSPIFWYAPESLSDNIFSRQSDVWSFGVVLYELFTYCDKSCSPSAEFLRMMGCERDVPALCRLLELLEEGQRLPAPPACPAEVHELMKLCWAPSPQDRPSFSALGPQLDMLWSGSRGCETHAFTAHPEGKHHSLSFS
Sequence of TYK2 (P29597 whole entry): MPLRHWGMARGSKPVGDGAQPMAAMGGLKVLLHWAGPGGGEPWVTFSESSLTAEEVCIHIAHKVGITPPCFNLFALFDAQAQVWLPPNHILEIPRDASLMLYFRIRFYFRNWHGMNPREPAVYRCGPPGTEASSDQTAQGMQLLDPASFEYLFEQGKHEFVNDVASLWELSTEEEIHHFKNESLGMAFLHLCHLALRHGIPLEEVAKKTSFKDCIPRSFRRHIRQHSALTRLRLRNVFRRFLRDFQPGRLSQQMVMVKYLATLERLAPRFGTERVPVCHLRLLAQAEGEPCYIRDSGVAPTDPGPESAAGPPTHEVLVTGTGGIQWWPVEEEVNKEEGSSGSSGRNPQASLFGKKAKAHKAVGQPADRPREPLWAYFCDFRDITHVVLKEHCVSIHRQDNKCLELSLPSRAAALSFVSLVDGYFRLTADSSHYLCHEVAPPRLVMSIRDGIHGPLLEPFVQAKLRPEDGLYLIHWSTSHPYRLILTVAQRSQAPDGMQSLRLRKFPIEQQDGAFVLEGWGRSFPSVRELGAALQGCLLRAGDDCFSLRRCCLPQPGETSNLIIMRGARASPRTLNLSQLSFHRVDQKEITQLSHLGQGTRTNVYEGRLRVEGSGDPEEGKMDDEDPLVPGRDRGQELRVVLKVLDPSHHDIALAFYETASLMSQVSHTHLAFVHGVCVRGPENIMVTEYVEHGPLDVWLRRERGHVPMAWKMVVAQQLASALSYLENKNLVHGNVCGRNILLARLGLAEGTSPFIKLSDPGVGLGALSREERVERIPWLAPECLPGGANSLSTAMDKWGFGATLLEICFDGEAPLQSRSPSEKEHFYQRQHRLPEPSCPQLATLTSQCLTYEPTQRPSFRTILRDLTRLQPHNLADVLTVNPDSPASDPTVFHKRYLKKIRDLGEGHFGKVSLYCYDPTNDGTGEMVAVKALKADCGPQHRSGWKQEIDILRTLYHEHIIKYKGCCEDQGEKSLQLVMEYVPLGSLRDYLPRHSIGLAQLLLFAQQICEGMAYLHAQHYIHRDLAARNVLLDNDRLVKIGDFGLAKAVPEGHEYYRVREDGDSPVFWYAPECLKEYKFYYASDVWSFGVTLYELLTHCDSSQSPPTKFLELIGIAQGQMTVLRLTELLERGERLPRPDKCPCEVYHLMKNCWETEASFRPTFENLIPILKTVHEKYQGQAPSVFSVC
T4 sequence (Q9UM73 19-1620): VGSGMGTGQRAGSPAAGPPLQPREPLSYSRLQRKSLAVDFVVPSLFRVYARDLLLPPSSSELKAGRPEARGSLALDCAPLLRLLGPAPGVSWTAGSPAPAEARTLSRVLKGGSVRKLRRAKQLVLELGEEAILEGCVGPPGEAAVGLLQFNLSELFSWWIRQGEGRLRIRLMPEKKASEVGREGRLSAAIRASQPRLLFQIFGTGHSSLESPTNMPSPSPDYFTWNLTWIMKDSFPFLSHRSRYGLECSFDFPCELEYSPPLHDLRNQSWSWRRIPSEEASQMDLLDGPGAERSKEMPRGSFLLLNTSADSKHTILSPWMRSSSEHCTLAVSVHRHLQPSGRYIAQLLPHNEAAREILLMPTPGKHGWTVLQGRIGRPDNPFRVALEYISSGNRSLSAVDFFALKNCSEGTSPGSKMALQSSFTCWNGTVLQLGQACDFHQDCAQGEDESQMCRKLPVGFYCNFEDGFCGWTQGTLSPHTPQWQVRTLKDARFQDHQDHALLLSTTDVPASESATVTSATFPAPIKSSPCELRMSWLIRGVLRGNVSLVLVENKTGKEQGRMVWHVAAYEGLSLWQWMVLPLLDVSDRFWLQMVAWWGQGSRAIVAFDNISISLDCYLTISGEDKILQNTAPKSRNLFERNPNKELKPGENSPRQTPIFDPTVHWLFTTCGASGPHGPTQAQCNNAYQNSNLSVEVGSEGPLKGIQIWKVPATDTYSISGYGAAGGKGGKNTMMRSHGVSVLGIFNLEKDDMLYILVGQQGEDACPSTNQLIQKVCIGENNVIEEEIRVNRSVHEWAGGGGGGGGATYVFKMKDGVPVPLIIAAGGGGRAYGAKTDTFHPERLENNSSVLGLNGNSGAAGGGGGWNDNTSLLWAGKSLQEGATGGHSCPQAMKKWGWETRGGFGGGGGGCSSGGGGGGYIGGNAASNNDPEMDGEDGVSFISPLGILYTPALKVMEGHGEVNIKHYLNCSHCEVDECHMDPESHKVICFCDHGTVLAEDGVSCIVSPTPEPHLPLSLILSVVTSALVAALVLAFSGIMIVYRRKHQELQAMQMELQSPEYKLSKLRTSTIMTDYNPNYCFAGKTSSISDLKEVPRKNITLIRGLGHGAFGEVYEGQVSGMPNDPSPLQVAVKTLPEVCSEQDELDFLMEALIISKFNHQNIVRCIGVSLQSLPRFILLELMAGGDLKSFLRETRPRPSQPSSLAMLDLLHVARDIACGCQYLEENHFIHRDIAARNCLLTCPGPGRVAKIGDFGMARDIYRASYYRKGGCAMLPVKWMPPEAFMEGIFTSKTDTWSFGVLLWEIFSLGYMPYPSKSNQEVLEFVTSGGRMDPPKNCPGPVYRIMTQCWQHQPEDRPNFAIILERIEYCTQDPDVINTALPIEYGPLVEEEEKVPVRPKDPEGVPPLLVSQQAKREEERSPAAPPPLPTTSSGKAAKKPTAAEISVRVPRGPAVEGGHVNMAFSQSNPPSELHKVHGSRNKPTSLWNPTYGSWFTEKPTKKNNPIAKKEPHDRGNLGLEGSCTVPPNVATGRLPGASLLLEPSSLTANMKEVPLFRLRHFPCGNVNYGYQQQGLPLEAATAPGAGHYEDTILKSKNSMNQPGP
T2 sequence (O60674 828-1132): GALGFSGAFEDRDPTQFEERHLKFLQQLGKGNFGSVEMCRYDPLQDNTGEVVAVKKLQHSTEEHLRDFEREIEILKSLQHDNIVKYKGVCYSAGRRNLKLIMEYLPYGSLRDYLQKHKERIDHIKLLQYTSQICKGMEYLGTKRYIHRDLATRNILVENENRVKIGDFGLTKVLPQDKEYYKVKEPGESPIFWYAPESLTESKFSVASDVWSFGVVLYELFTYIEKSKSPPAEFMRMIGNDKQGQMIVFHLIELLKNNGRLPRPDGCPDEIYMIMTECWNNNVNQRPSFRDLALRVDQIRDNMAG

SMILES	IC50 ([1]; Table B1)	IC50 (TYK2; Table B1)	IC50 ([2]; Table B1)	IC50 ([3]; Table B1)	also measured
COc1ccccc1C(=O)Nc1ccc2cc1CCc1cccc(c1)Nc1ncc(Cl)c(n1)N2 [Example B36, N-[6-Chloro-2,4,8,22-tetraazatetracyclo[14.3.1.1(3,7).1(9,13)]docosa-1(20), 3(22),4,6,9(21),10,12,16,18-nonaen-12-yl]-2-methoxybenzamide trifluoroacetate]	42 nM	21 nM	7.7 nM	13 nM	IC50 [4, 5]: > 1000 nM
CC(=O)Nc1ccc2cc1CCc1cccc(c1)Nc1ncc(Cl)c(n1)N2 [Example B26, N-[6-Chloro-2,4,8,22-tetraazatetracyclo[14.3.1.1(3,7).1(9,13)]docosa-1(20), 3(22),4,6,9(21),10,12,16,18-nonaen-12-yl]acetamide trifluoroacetate]	7.4 nM	15 nM	4.1 nM	6.5 nM	IC50 [4, 5]: 1100 nM
O=C(Nc1ccc2cc1CCc1cncc(c1)Nc1ncc(Cl)c(n1)N2)N1CCN(S(=O)(=O)c2ccccc2)CC1 [Example B319, N-[6-Chloro-2,4,8,18,22-pentaazatetracyclo[14.3.1.1(3,7).1(9,13)]docosa-1(20),3(22),4,6,9(21),10,12,16,18-nonaen-12-yl]-4-(phenylsulfonyl)piperazine-1-carboxamide bis(trifluoroacetate)]	> 400 nM	288 nM	> 400 nM	42 nM	ALK % of inhibition at a concentration of 500 nM or 1 mM [4, 6]: 58%
N#Cc1ccc(N2CCN(C(=O)Nc3ccc4cc3CCc3cncc(c3)Nc3ncc(Cl)c(n3)N4)CC2)cc1 [Example B303, N-[6-Chloro-2,4,8,18,22-pentaazatetracyclo[14.3.1.1(3,7).1(9,13)]docosa-1(20),3(22),4,6,9(21),10,12,16,18-nonaen-12-yl]-4-(4-cyanophenyl)piperazine-1-carboxamide tris(trifluoroacetate)]	> 400 nM	36 nM	161 nM	19 nM	ALK % of inhibition at a concentration of 500 nM or 1 mM [4, 6]: 81%
COc1cccc(NC(=O)N2CCC(C(=O)Nc3ccc4cc3CCc3cccc(c3)Nc3ncc(Cl)c(n3)N4)CC2)c1 [Example A38, N(4)-[6-Chloro-2,4,8,22-tetraazatetracyclo[14.3.1.1(3,7).1(9,13)]docosa-1(20),3(22),4,6,9(21),10,12,16,18-nonaen-12-yl]-N(1)-(3-methoxyphenyl)piperidine-1,4-dicarboxamide trifluoroacetate]	–	–	–	–	IC50 [1, 7]: 46 nM; IC50 (TYK2): 48 nM; IC50 [2, 8]: 16 nM; IC50 [3, 9]: 6.6 nM; ALK % of inhibition at a concentration of 500 nM or 1 mM [4, 10]: 55%
Cc1oncc1S(=O)(=O)N1CCC(CN(C)Cc2ccc3cc2CCc2cncc(c2)Nc2ncc(Cl)c(n2)N3)CC1 [Example B342, 1-[6-Chloro-2,4,8,18,22-pentaazatetracyclo[14.3.1.1(3,7).1(9,13)]docosa-1(20),3(22),4,6,9(21),10,12,16,18-nonaen-12-yl]-N-methyl-N-({1-[(5-methylisoxazol-4-yl)sulfonyl]piperidin-4-yl}methyl)methanamine tris(trifluoroacetate)]	> 400 nM	226 nM	60 nM	7.7 nM	ALK % of inhibition at a concentration of 500 nM or 1 mM [4, 6]: 37%
Clc1cnc2nc1Nc1cccc(c1)CCCNc1cccc(c1)N2 [Example D77, 6-Chloro-2,4,8,17,24-pentaazatetracyclo[16.3.1.1(3,7).1(9,13)]tetracosa-1(22),3(24),4,6,9(23),10,12,18,20-nonaene bis(trifluoroacetate)]	–	–	–	–	IC50 ([1]; Table D1): 11 nM; IC50 (TYK2; Table D1): 5.6 nM; IC50 ([2]; Table D1): 3.1 nM; IC50 ([3]; Table D1): 8.9 nM; IC50 ([4]; Table D1, 90 μM ATP): 400 nM
N#CCC(=O)N1CCC(CC(=O)Nc2ccc3cc2CCc2cncc(c2)Nc2ncc(Cl)c(n2)N3)CC1 [Example A245, N-[6-Chloro-2,4,8,18,22-pentaazatetracyclo[14.3.1.1(3,7).1(9,13)]docosa-1(20),3(22),4,6,9(21),10,12,16,18-nonaen-12-yl]-2-[1-(cyanoacetyl)piperidin-4-yl]acetamide bis(trifluoroacetate)]	–	–	–	–	IC50 [1, 7]: > 400 nM; IC50 (TYK2): 41 nM; IC50 [2, 8]: 117 nM; IC50 [3, 9]: 3.2 nM; ALK % of inhibition at a concentration of 500 nM or 1 mM [4, 10]: 47%
CC(C)S(=O)(=O)Nc1ccc2cc1CCc1cccc(c1)Nc1ncc(Cl)c(n1)N2 [Example B143, N-[6-Chloro-2,4,8,22-tetraazatetracyclo[14.3.1.1(3,7).1(9,13)]docosa-1(20), 3(22),4,6,9(21),10,12,16,18-nonaen-12-yl]propane-2-sulfonamide trifluoroacetate]	104 nM	13 nM	2.8 nM	11 nM	IC50 [4, 5]: > 1000 nM
O=C(Nc1ccc2cc1CCc1cccc(c1)Nc1ncc(Cl)c(n1)N2)N[C@H]1CCN(C(=O)c2nccs2)C1 [Example B231, N-[6-Chloro-2,4,8,22-tetraazatetracyclo[14.3.1.1(3,7).1(9,13)]docosa-1(20),3(22),4,6,9(21),10,12,16,18-nonaen-12-yl]-N′-[(3S)-1-(1,3-thiazol-2-ylcarbonyl)pyrrolidin-3-yl]urea trifluoroacetate]	65 nM	16 nM	5.5 nM	4 nM	ALK % of inhibition at a concentration of 500 nM or 1 mM [4, 11]: 8.1%
CCNC(=O)N1CCN(C(=O)COc2ccc3cc2CCc2cccc(c2)Nc2ncc(Cl)c(n2)N3)CC1 [Example A12, trifluoroacetate]	–	–	–	–	IC50 [1, 7]: 65 nM; IC50 (TYK2): 30 nM; IC50 [2, 8]: 11 nM; IC50 [3, 9]: 9.4 nM; ALK % of inhibition at a concentration of 500 nM or 1 mM [4, 10]: 17%
CC(=O)N1CCC(CC(=O)Nc2ccc3cc2CCc2cccc(c2)Nc2ncc(Cl)c(n2)N3)CC1 [Example A55, 2-(1-Acetylpiperidin-4-yl)-N-[6-chloro-2,4,8,22-tetraazatetracyclo[14.3.1.1(3,7).1(9,13)]docosa-1(20),3(22),4,6,9(21),10,12,16,18-nonaen-12-yl]acetamide trifluoroacetate]	–	–	–	–	IC50 [1, 7]: 54 nM; IC50 (TYK2): 2.3 nM; IC50 [2, 8]: 2.4 nM; IC50 [3, 9]: 1.5 nM; ALK % of inhibition at a concentration of 500 nM or 1 mM [4, 10]: 23%
Cc1cc(C(=O)N2CCC(NC(=O)Nc3ccc4cc3CCc3cccc(c3)Nc3ncc(Cl)c(n3)N4)CC2)no1 [Example B263, N-[6-Chloro-2,4,8,22-tetraazatetracyclo[14.3.1.1(3,7).1(9,13)]docosa-1(20),3(22),4,6,9(21),10,12,16,18-nonaen-12-yl]-N′-{1-[(5-methylisoxazol-3-yl)carbonyl]piperidin-4-yl}urea trifluoroacetate]	110 nM	22 nM	9.3 nM	6.7 nM	ALK % of inhibition at a concentration of 500 nM or 1 mM [4, 11]: 29%
N#Cc1cccnc1N1CCN(C(=O)Nc2ccc3cc2CCc2cncc(c2)Nc2ncc(Cl)c(n2)N3)CC1 [Example B311, N-[6-Chloro-2,4,8,18,22-pentaazatetracyclo[14.3.1.1(3,7).1(9,13)]docosa-1(20),3(22),4,6,9(21),10,12,16,18-nonaen-12-yl]-4-(3-cyanopyridin-2-yl)piperazine-1-carboxamide tris(trifluoroacetate)]	> 400 nM	146 nM	170 nM	20 nM	ALK % of inhibition at a concentration of 500 nM or 1 mM [4, 6]: 67%
